Laboratory results reported in ChEMBL document CHEMBL1151923, “Synthesis and evaluation of a netropsin-proximicin-hybrid library for DNA binding and cytotoxicity” (2009).

Assays:
AGS = test: Cytotoxicity against human AGS cells after 48 hrs by sulforhodamine B assay; type: functional
MCF7 = test: Cytotoxicity against human MCF7 cells after 48 hrs by sulforhodamine B assay; type: functional; details: MCF7, 48 h
HepG2 = test: Cytotoxicity against human HepG2 cells after 48 hrs by sulforhodamine B assay; type: functional; details: HepG2, 48 h
Nucleic Acid [1] = test: Binding affinity to DNA minor groove region CATGGCCATG assessed as melting temperature at 6 uM by thermal denaturation study; type: nucleic-acid assay
Nucleic Acid [2] = test: Binding affinity to DNA minor groove region CATGGCCATG assessed as change in melting temperature at 6 uM by thermal denaturation study; type: nucleic-acid assay
Nucleic Acid [3] = test: Binding affinity to DNA minor groove region CGCAAATTTGCG assessed as change in melting temperature at 6 uM by thermal denaturation study; type: nucleic-acid assay
Nucleic Acid [4] = test: Binding affinity to DNA minor groove region CGCAAATTTGCG assessed as melting temperature at 6 uM by thermal denaturation study; type: nucleic-acid assay

Compound: COC(=O)Nc1cc(C(=O)Nc2cc(C(=O)NCCC(C)C)n(C)c2)n(C)c1
- GI50 (AGS): > 20 µg/mL
- GI50 (MCF7): > 20 µg/mL
- GI50 (HepG2): > 20 µg/mL

Compound: Cn1cc(NC(=O)c2cc(NC(=O)CNC(=N)N)cn2C)cc1C(=O)NCCC(=N)N
- Tm (Nucleic Acid [1]): 48 °C
- ΔTm (Nucleic Acid [2]): 0 °C
- ΔTm (Nucleic Acid [3]): 18 °C
- Tm (Nucleic Acid [4]): 69 °C

Compound: Cn1cc(NC(=O)c2cc(NC(=O)C(C)(C)C)cn2C)cc1C(=O)NCCc1c[nH]c2ccccc12
- GI50 (AGS): 23.5 µM
- GI50 (MCF7): 17.4 µM
- GI50 (HepG2): > 40.9 µM

Compound: COC(=O)Nc1cc(C(=O)Nc2cc(C(=O)NCCc3c[nH]c4ccc(O)cc34)n(C)c2)n(C)c1
- GI50 (AGS): > 20 µg/mL
- GI50 (MCF7): > 20 µg/mL
- GI50 (HepG2): > 20 µg/mL

Compound: CC(=O)Nc1cc(C(=O)Nc2cc(C(=O)NCCc3c[nH]c4ccccc34)n(C)c2)n(C)c1
- GI50 (AGS): > 20 µg/mL
- GI50 (MCF7): > 20 µg/mL
- GI50 (HepG2): > 20 µg/mL

Compound: COC(=O)Nc1cc(C(=O)Nc2cc(C(=O)O)n(C)c2)n(C)c1
- GI50 (AGS): > 20 µg/mL
- GI50 (MCF7): > 20 µg/mL
- GI50 (HepG2): > 20 µg/mL

Compound: COC(=O)Nc1cc(C(=O)Nc2cc(C(=O)NCCCC(=O)O)n(C)c2)n(C)c1
- GI50 (AGS): > 20 µg/mL
- GI50 (MCF7): > 20 µg/mL
- GI50 (HepG2): > 20 µg/mL

Compound: Cn1cc(NC(=O)c2cc(NC(=O)OCC3c4ccccc4-c4ccccc43)cn2C)cc1C(=O)NCCc1c[nH]c2ccccc12
- GI50 (AGS): > 31.9 µM
- GI50 (MCF7): 18.8 µM
- GI50 (HepG2): 4.6 µM

Compound: Cn1cc(NC(=O)c2cc(NC(=O)OCC(Cl)(Cl)Cl)cn2C)cc1C(=O)NCCc1c[nH]c2ccccc12
- GI50 (AGS): 10 µM
- Tm (Nucleic Acid [1]): 68 °C
- ΔTm (Nucleic Acid [2]): 21 °C
- GI50 (MCF7): 10.3 µM
- ΔTm (Nucleic Acid [3]): 11 °C
- GI50 (HepG2): 4 µM
- Tm (Nucleic Acid [4]): 59 °C

Compound: COC(=O)Nc1cc(C(=O)Nc2cc(C(=O)NC(Cc3c[nH]c4ccccc34)C(=O)O)n(C)c2)n(C)c1 (configuration not stated)
- GI50 (AGS): > 20 µg/mL
- GI50 (MCF7): > 20 µg/mL
- GI50 (HepG2): > 20 µg/mL

Compound: COC(=O)Nc1cc(C(=O)Nc2cc(C(=O)NCCc3ccccc3)n(C)c2)n(C)c1
- GI50 (AGS): > 20 µg/mL
- GI50 (MCF7): > 20 µg/mL
- GI50 (HepG2): > 20 µg/mL

Compound: COC(=O)Nc1cc(C(=O)Nc2cc(C(=O)NCCc3ccc(O)c(O)c3)n(C)c2)n(C)c1
- GI50 (AGS): > 20 µg/mL
- GI50 (MCF7): > 20 µg/mL
- GI50 (HepG2): > 20 µg/mL

Compound: COC(=O)Nc1coc(C(=O)Nc2coc(C(=O)NCCc3ccc(O)cc3)c2)c1 [PROXIMICIN B]
- GI50 (AGS): 3.6 µM
- GI50 (MCF7): 12.1 µM
- GI50 (HepG2): 23 µM

Compound: COC(=O)Nc1cc(C(=O)Nc2cc(C(=O)NCCc3c[nH]c4ccccc34)n(C)c2)n(C)c1
- GI50 (AGS): 17.7 µM
- GI50 (MCF7): 24.9 µM
- GI50 (HepG2): 21.6 µM

Compound: COC(=O)Nc1coc(C(=O)Nc2coc(C(N)=O)c2)c1 [PROXIMICIN A]
- GI50 (AGS): 2 µM
- GI50 (MCF7): 24.6 µM
- GI50 (HepG2): 2.8 µM

Compound: Cn1cc(NC(=O)c2cc(NC(=O)NCc3ccccc3)cn2C)cc1C(=O)NCCc1c[nH]c2ccccc12
- GI50 (AGS): > 20 µg/mL
- GI50 (MCF7): > 20 µg/mL
- GI50 (HepG2): > 20 µg/mL

Compound: COC(=O)Nc1cc(C(=O)Nc2cc(C(=O)OCCc3ccccc3)n(C)c2)n(C)c1
- GI50 (AGS): 2.8 µM
- Tm (Nucleic Acid [1]): 47 °C
- ΔTm (Nucleic Acid [2]): 0 °C
- GI50 (MCF7): 13 µM
- ΔTm (Nucleic Acid [3]): 25 °C
- GI50 (HepG2): 2 µM
- Tm (Nucleic Acid [4]): 71 °C

Compound: COC(=O)Nc1coc(C(=O)Nc2coc(C(=O)NCCc3c[nH]c4ccccc34)c2)c1 [PROXIMICIN C]
- GI50 (AGS): 0.6 µM
- GI50 (MCF7): 20.6 µM
- GI50 (HepG2): 1.8 µM

Compound: C=CCOC(=O)Nc1cc(C(=O)Nc2cc(C(=O)NCCc3c[nH]c4ccccc34)n(C)c2)n(C)c1
- GI50 (AGS): 1.7 µM
- GI50 (MCF7): 15.4 µM
- GI50 (HepG2): 14.3 µM

Compound: Cn1cc(NC(=O)c2cc(NC(=O)c3cc(NC=O)cn3C)cn2C)cc1C(=O)NCCC(=N)N
- Tm (Nucleic Acid [1]): 45 °C
- ΔTm (Nucleic Acid [2]): 0 °C
- ΔTm (Nucleic Acid [3]): 16 °C
- Tm (Nucleic Acid [4]): 65 °C

Compound: Cn1cc(NC(=O)c2cc(NC(=O)OCc3ccccc3)cn2C)cc1C(=O)NCCc1c[nH]c2ccccc12
- GI50 (AGS): 9.3 µM
- Tm (Nucleic Acid [1]): 70 °C
- ΔTm (Nucleic Acid [2]): 23 °C
- GI50 (MCF7): 10.8 µM
- ΔTm (Nucleic Acid [3]): 17 °C
- GI50 (HepG2): 5.6 µM
- Tm (Nucleic Acid [4]): 65 °C

Compound: COC(=O)Nc1cc(C(=O)Nc2cc(C(=O)NCCc3cnc[nH]3)n(C)c2)n(C)c1
- GI50 (AGS): > 20 µg/mL
- GI50 (MCF7): > 20 µg/mL
- GI50 (HepG2): > 20 µg/mL

Compound: Cn1cc(NC(=O)c2cc(NC(=O)Nc3ccccc3)cn2C)cc1C(=O)NCCc1c[nH]c2ccccc12
- GI50 (AGS): 16.8 µM
- Tm (Nucleic Acid [1]): 45 °C
- ΔTm (Nucleic Acid [2]): 0 °C
- GI50 (MCF7): 19.7 µM
- ΔTm (Nucleic Acid [3]): 6 °C
- GI50 (HepG2): 14.3 µM
- Tm (Nucleic Acid [4]): 53 °C
